Patent US12385055B2, “Compositions and methods for production of salidroside, icariside D2, and precursors of salidroside and icariside D2” (Whitehead Institute for Biomedical Research, priority 2017, dated 2025)

Legend:
[1] = Phenylacetaldehyde reductase activity assay; assay type: biochemical; conditions: NADPH as co-substrate
Method: FIG. 15 is a chromatogram showing the enzymatic reduction of phenylacetaldehyde to phenylethyl alcohol by Rr4HPAR1 and Rr4HPAR2. Chromatogram of positive ion mode metabolites between 50 and 300 m/z show the depletion of phenylacetaldehyde and production of phenylethyl alcohol when exposed to NADPH and Rr4HPAR1 or RrPAR2. Reactions were carried out in 200 μL 50 mM Tris, pH 8.0 in the presence of 2 mM phenylacetaldehyde, 5 mM NADPH and 50 μg of recombinant enzyme. The reactions were incubated at 30° C. for 25 minutes prior to quenching with 200 μL of 0.8 M formic acid, extracted with 100 μL of ethyl acetate and analyzed by gas chromatography-mass spectrometry. Phenylethyl alcohol was verified by comparison to an authentic standard.
The phenylacetaldehyde reductase activity assays using Rr4HPAR1 and RrPAR2 were carried out in 200 μL reaction buffer (50 mM Tris, pH 8.0) at the presence of 2 mM phenylacetaldehyde, 5 mM NADPH and 5 μg of recombinant enzyme. […] The organic phase was then analyzed by gas chromatography-mass spectrometry (GC-MS) using an 5% Phenyl Methyl Silox column (30 m×250 m×0.25 m, Agilent) with a temperature gradient as follows: 0-1 min 45° C., 4-13.33 min 45-185° C. […] The reaction mixture was then centrifuged and analyzed by LC-MS. […] Product formation was measured using select ion monitoring in positive mode for a centroid center mass of 121.065 with a scan width of 0.002. […]

[2] = 4-HPAA reductase activity assay; assay type: biochemical; conditions: 5 mM 4-HPAA, 10 mM NADPH, five-minute time point
Method: The phenylacetaldehyde reductase activity assays using Rr4HPAR1 and RrPAR2 were carried out in 200 μL reaction buffer (50 mM Tris, pH 8.0) at the presence of 2 mM phenylacetaldehyde, 5 mM NADPH and 5 μg of recombinant enzyme. The reactions were incubated at 30° C. for various time points, quenched with an equal volume of 0.8 M formic acid, and extracted by 100 μL of ethyl acetate. The organic phase was then analyzed by gas chromatography-mass spectrometry (GC-MS) using an 5% Phenyl Methyl Silox column (30 m×250 m×0.25 m, Agilent) with a temperature gradient as follows: 0-1 min 45° C., 4-13.33 min 45-185° C. The quadrupole MS was set to EI mode, electron energy at 70 eV, MS-source temperature at 230° C., MS-quad temperature at 150° C., scan mass range at 50-300 m/z and SIM for 120 m/z and 122 m/z. EI-MS spectra were compared against analytical standards. The 4-HPAA reductase activity assays were carried out in 100 μL of 50 mM Tris pH 8.0 with the addition of 5 mM 4-HPAA, 10 mM NADPH and 0.2 μg of Rr4HPAR1 or […] of Rr4HPAR2. […] The reaction mixture was then centrifuged and analyzed by LC-MS. […] Product formation was measured using select ion monitoring in positive mode for a centroid center mass of 121.065 with a scan width of 0.002. The specific activity was determined at a five-minute reaction time point, and quantified against a standard curve of tyrosol.

reduction of phenylacetaldehyde to phenylethanol [1]: higher activity
Substance: Rr4HPAR1: R. rosea 4-hydroxyphenylacetaldehyde reductase, reduces 4-HPAA to tyrosol
specific activity towards 4-HPAA [2]: 6.9 µmol/min/mg
